| SMILES | melting point [°C] |
| --- | --- |
| COc1cc2c(Nc3ccc(Cl)cc3F)ncnc2cc1OCCOc1cccnc1 | 188 to 190 |
| O=C(O)c1c[nH]c2c1C(=O)CCC2 | 269 to 270 |
| CS(=O)(=O)Nc1cccc(N=C2NCCN2)c1 | 229 to 230 |
| NC(=NCC(F)(F)F)Nc1ccnc(COCCO)n1 | 144 to 146 |
| CCOC(=O)c1cn(Cc2c(F)cccc2F)c2sc(-c3ccccc3)c(CBr)c2c1=O | 206 |
| NC(=O)c1[nH]cnc1OC(=O)c1ccc(Cl)cc1 | 220 |
| Cc1cc(C)cc(CC(C)(C)NCC(O)c2cc(O)cc3c2OCC(=O)N3)c1 (stereo not given) | 235 to 238 |
| CC=NN(C)C1=NOCc2ccc(Cl)cc21 | 111 to 112 |
| Cc1ccc(CC(N)C(O)C(N)Cc2ccccc2)cc1 (stereo not given) | 126 to 128 |
| O=c1n(CCCC2CCCCC2)ccn1-c1ccc([N+](=O)[O-])cc1 | 153 to 156 |
| COc1ccc2c(c1)C(CCNC(=O)C(F)(F)F)=CC2 | 87 to 88 |
| Cc1cc(CC#N)cc(Cc2nc3c(F)c(F)ccc3s2)c1 | 84 to 86 |
| Nc1cccc2c1NC(=O)C2 | 248 to 251 |
| COC(=O)c1cccc(Oc2ccc(NC(=O)c3ccc([N+](=O)[O-])cc3Br)cc2NC(=O)c2ccc([N+](=O)[O-])cc2Br)c1C(=O)OC | 138 to 142 |
| CCCCOC(=O)c1cn(CC)c2nc(N3CCNCC3)c(F)cc2c1=O | 119 to 120 |
| O=C(CCCCCCC(=O)N1CCN(c2cccc(C(F)(F)F)c2)CC1)NO | 126 to 128 |
| CCOCCOC(=O)C1=C(C)NC(C=O)=C(C(=O)OCC)C1c1cccc([N+](=O)[O-])c1 (stereo not given) | 100 to 101 |
| O=Cc1ccc2c(c1)NC(=O)CO2 | 220 to 222 |
| C=CC(=O)NC(CCC(=O)O)C(=O)O (stereo not given) | 125 to 127 |
| C[C@@H]1CN(c2c(F)cc3c(=O)c(C(=O)O)cn(C4CC4)c3c2F)C[C@H]1N (relative stereo) | 257 to 260 |
| COc1cc2c(cc1OC)C(c1ccccc1)N(C(=O)NCCN1CCCCC1)CC2 (stereo not given) | 101 to 102 |
| NC(=O)c1cc2c(Oc3ccc(N)cc3)cncc2s1 | > 250 |
| CN(C1CCN(CCCC(F)(F)F)CC1)S(=O)(=O)c1ccc(Nc2nccc(Nc3ccc(F)cc3)n2)cc1 | 166 to 167 |
| O=C(Nc1ccc(-n2nc(C(F)(F)F)cc2C(F)(F)F)cc1)c1ccncc1 | 156 to 157 |
| N#CC(Cc1cccc2c1OCO2)C(=O)O (stereo not given) | 118 |

| SMILES | melting point [°C] |
| --- | --- |
| Cc1ccccc1-c1c(NC(=O)Nc2c(C)cccc2C(C)C)c(=O)oc2c(F)cc(F)cc12 | 219 to 220 |
| CC(=O)NCc1c(C)cc(CO)cc1C | 194 |
| O=C(O)Cc1ccc(F)cc1Sc1ccc([N+](=O)[O-])cc1 | 160 to 164 |
| O=[N+]([O-])c1ccc(OC2(c3ccccc3)CCN(Cc3ccccc3)CC2)cc1 | 135 to 137 |
| Oc1noc2ccc(Cl)cc12 | 219 to 222 |
| O=C(NCc1ccc2c(c1)OCO2)Nc1cc(N2CC(c3ccccc3)CC2=O)ccn1 (stereo not given) | 185 to 188 |
| O=C1N=C(N2CCOCC2)SC1Cc1cccc(-c2ccc(O)c(C3CCCCC3)c2)c1 (stereo not given) | 100 to 108 |
| CS(=O)c1ccc(CSc2nnc(-c3ccc4c(c3)CCO4)o2)cc1C(F)(F)F (stereo not given) | 177 to 178 |
| Nc1nnc(C(F)(F)C(Cl)Cl)s1 | 181 to 182 |
| COC(=O)c1ccc(CC(C)NCC(O)c2ccc(O)c(CO)c2)c(F)c1 (stereo not given) | 97 to 100 |
| COc1ccc(CC(O)CO)c(OCc2ccccc2)c1 (stereo not given) | 82 to 86 |
| CCNC(=O)Nc1cc(-c2c(-c3ccc(F)c(C)c3)nc3c(C)ccnn23)ccn1 | 240 to 241 |
| COC(=O)CCc1cc2c(s1)NC(=S)C(C)N=C2c1ccccc1Cl (stereo not given) | 198 to 200 |
| O=C(O)c1cncc(O)c1 | > 260 |
| CSc1[nH]c2cccc3c2c1CC1C3CC(C)CN1C (stereo not given) | 201 to 202 |
| CC12CCCC=C1CCC1C2CCC2(C)C(O)CCC12 (stereo not given) | 144 to 147 |
| COc1cc2c(cc1F)C1(CO2)C(=O)Nc2ccccc21 (stereo not given) | 222 to 225 |
| CCCCCCCCCCOc1ccc(NC(=O)c2ccc(OC(C)=O)cc2)cc1OCCCCCCCCCC | 117 |
| CCOC(=O)/C=C/c1ccc(OCCCS(C)(=O)=O)cc1Oc1ncc(C(F)(F)F)cc1Cl | 191 |
| CC(C)(C)OC(=O)C(Cl)=CC1C(C(=O)OC(C#N)c2ccc(F)c(Oc3ccccc3)c2)C1(C)C (stereo not given) | 94 |
| C/C(=N\OC(=O)c1ccc(CNC(=O)OC(C)(C)C)cc1)[C@H]1CC[C@H]2[C@@H]3CCC4=CC(=O)CC[C@]4(C)[C@H]3CC[C@]12C | 166 to 168 |
| CCOc1nn(Cc2ccc(OCc3nc(-c4ccccc4)oc3C)cc2)cc1CCC(=O)O | 96 to 97 |
| CC1COc2cc(NC(=O)OCc3ccccc3)ccc2N1C(=O)OCc1ccccc1 (stereo not given) | 104 to 106 |
| COc1ccc(S(=O)(=O)NCC(C(=O)NO)C2(CC(C)C)CCN(CCc3ccccc3)C2=O)cc1 (stereo not given) | 195 to 196 |
| CNC(=O)NC1CC(N)(C(=O)O)C2C(C(=O)O)C12 (stereo not given) | > 275 |

Reference: a melting point compilation (Tetko et al.; mined from patent text by program, amines drawn as free bases though some values may be those of a salt)
